Laboratory results: ChEMBL document CHEMBL5316263, “Structure-Based Discovery of Selective Histone Deacetylase 8 Degraders with Potent Anticancer Activity” (J Med Chem, 2023)
Activity calls are given as the source filed them. The calls are words filed in the database; no cut-off is given here.

Assays:
A549 [1] = test: Effect on CYP1B1 gene in human A549 cells at 10 uM measured after 20 hrs by RNA sequencing analysis; type: functional, cell-based
A549 [2] = test: Induction of apoptosis in human A549 cells assessed as late apoptotic cells at 1.25 uM incubated for 72 hrs by annexin V-FITC staining based flow cytometry (reference value: 0.048%); type: functional
[3] = molecular target: T1, Protein cereblon/Histone deacetylase 8 (Homo sapiens) (UniProt Q9BY41+Q96SW2); test: Protac activity at CRBN/HDAC8 in human A549 cells assessed as degradation of HDAC8 at 2 uM measured after 20 hrs by Western blot analysis relative to control; type: cell-based
A549 [4] = test: Inhibition of colony formation in human A549 cells assessed as reduction in cell proliferation at 2.5 to 10 uM measured after 7 to 10 days with media replenishment along with compound for every 3 days by crystal violet staining based analysis; type: functional; conditions: dose 2.5-10 µM, time 7-10 day
HCT-116 [5] = test: Inhibition of colony formation in human HCT-116 cells assessed as reduction in cell proliferation at 2.5 to 10 uM measured after 7 to 10 days with media replenishment along with compound for every 3 days by crystal violet staining based analysis; type: functional; conditions: dose 2.5-10 µM, time 7-10 day
HCT-116 [6] = test: Inhibition of colony formation in SiRNA mediated HDAC8 knockdown human HCT-116 cells assessed as decrease in cell proliferation at 2.5 to 10 uM measured after 7 to 10 days with media replenishment along with compound for every 3 days by crystal violet staining based analysis; type: functional; conditions: dose 2.5-10 µM, time 7-10 day
A549 [7] = test: Effect on MAFK gene in human A549 cells at 10 uM measured after 20 hrs by RNA sequencing analysis; type: functional, cell-based
A549 [8] = test: Effect on NPTX1 gene in human A549 cells at 10 uM measured after 20 hrs by RNA sequencing analysis; type: functional, cell-based
A549 [9] = test: Downregulation of LAMTOR4 in human A549 cells measured after 20 hrs by proteomic analysis; type: functional, cell-based
A549 [10] = test: Downregulation of ABHD6 in human A549 cells measured after 20 hrs by proteomic analysis; type: functional, cell-based
A549 [11] = test: Induction of apoptosis in human A549 cells assessed as viable cells at 2.5 uM incubated for 72 hrs by annexin V-FITC staining based flow cytometry (reference value: 99.9%); type: functional; conditions: read-out: Activity
A549 [12] = test: Induction of apoptosis in human A549 cells assessed as early apoptotic cells at 2.5 uM incubated for 72 hrs by annexin V-FITC staining based flow cytometry (reference value: 0.099%); type: functional
A549 [13] = test: Induction of apoptosis in human A549 cells assessed as early apoptotic cells at 10 uM incubated for 72 hrs by annexin V-FITC staining based flow cytometry (reference value: 0.099%); type: functional
A549 [14] = test: Induction of apoptosis in human A549 cells assessed as early apoptotic cells at 20 uM incubated for 72 hrs by annexin V-FITC staining based flow cytometry (reference value: 0.099%); type: functional
A549 [15] = test: Induction of apoptosis in human A549 cells assessed as late apoptotic cells at 10 uM incubated for 72 hrs by annexin V-FITC staining based flow cytometry (reference value: 0.048%); type: functional
A549 [16] = test: Induction of apoptosis in human A549 cells assessed as upregulation of cleaved caspase-3 level measured after 48 hrs by Western blot analysis; type: functional, cell-based; conditions: dose 1.25-20 µM
A549 [17] = test: Induction of apoptosis in human A549 cells assessed as upregulation of cleaved PARP level measured after 48 hrs by Western blot analysis; type: functional, cell-based; conditions: dose 1.25-20 µM
A549 [18] = test: Induction of apoptosis in human A549 cells assessed as viable cells at 5 uM by annexin V-FITC staining based flow cytometry (reference value: 100%); type: functional; conditions: read-out: Activity
A549 [19] = test: Induction of apoptosis in human A549 cells assessed as early apoptotic cells at 5 uM by annexin V-FITC staining based flow cytometry (reference value: 0%); type: functional
A549 [20] = test: Induction of apoptosis in human A549 cells assessed as viable cells at 5 uM incubated with compound followed by irradiation by annexin V-FITC staining based flow cytometry (reference value: 89.7%); type: functional; conditions: A549, light or radiation study, read-out: Activity
A549 [21] = test: Induction of apoptosis in human A549 cells assessed as early apoptotic cells at 5 uM incubated with compound followed by irradiation by annexin V-FITC staining based flow cytometry (reference value: 6.26%); type: functional
A549 [22] = test: Induction of apoptosis in human A549 cells assessed as late apoptotic cells at 5 uM incubated with compound followed by irradiation by annexin V-FITC staining based flow cytometry (reference value: 3.07%); type: functional
A549 [23] = test: Induction of apoptosis in human A549 cells assessed as necrotic cells at 5 uM incubated for 48 hrs by annexin V FITC and propidium iodide based flow cytometry relative to control; type: functional
HCT-116 [24] = test: Induction of apoptosis in human HCT-116 cells assessed as necrotic cells at 5 uM incubated for 48 hrs by annexin V FITC and propidium iodide based flow cytometry relative to control; type: functional
[25] = molecular target: Protein cereblon/Protein deacetylase HDAC6 (Homo sapiens) (UniProt Q9UBN7+Q96SW2); test: Protac activity at CRBN/HDAC6 in human A549 cells assessed as reduction in HDAC6 protein level at 0.1 to 10 uM by Western blot analysis; type: cell-based; conditions: dose 0.1-10 µM
A549 [26] = test: Inhibition of HDAC8 foci formation in human A549 cells measured after 20 hrs by DAPI staining based immunofluorescence assay; type: functional, cell-based; conditions: dose 0.5-8 µM
Jurkat = test: Antiproliferative activity against human Jurkat cells at 0.1 to 10 uM measured after 72 hrs by CCK-8 method; type: functional, cell-based; conditions: dose 0.1-10 µM
[27] = molecular target: T1, Protein cereblon/Histone deacetylase 8 (Homo sapiens); test: Protac activity at CRBN/HDAC8 in human A549 cells at 10 uM measured preincubated for 20 hrs followed by drug washout and measured after 48 hrs by Western blot analysis; type: cell-based
[28] = molecular target: T1, Protein cereblon/Histone deacetylase 8 (Homo sapiens); test: Protac activity at CRBN/HDAC8 in human Jurkat cells at 0.1 to 10 uM measured after 20 hrs by Western blot analysis; type: cell-based; conditions: dose 0.1-10 µM
[29] = molecular target: T1, Protein cereblon/Histone deacetylase 8 (Homo sapiens); test: Protac activity at CRBN/HDAC8 in human A549 cells assessed as decrease in PGM1 expression at 0.1 to 10 uM under glucose deprivation condition by Western blot analysis; type: cell-based; conditions: dose 0.1-10 µM
[30] = molecular target: T1, Protein cereblon/Histone deacetylase 8 (Homo sapiens); test: Protac activity at CRBN/HDAC8 in human MDA-MB-231 cells assessed as decrease in SMAD3 protein level at 0.1 to 10 uM by Western blot analysis; type: cell-based; conditions: dose 0.1-10 µM
A549 [31] = test: Inhibition of DNA damage repair in human A549 cells assessed as decrease in gamma-H2AX level at 5 uM incubated for 24 hrs followed by irradiation for 4 hrs by immunofluorescence staining based analysis; type: functional, cell-based
A549 [32] = test: Inhibition of DNA damage repair in human A549 cells assessed as reduction in Ku70 protein level at 5 uM incubated for 24 hrs by immunofluorescence staining based analysis; type: functional, cell-based
[33] = Toxicity in NOD/SCID mouse xenografted with human A549 cells assessed as change in body weight loss at 5 mg/kg, ip administered every 5 days measured at day 30; type: organism-based; conditions: in vivo, 720 h, time 30 day
[34] = molecular target: T1, Protein cereblon/Histone deacetylase 8 (Homo sapiens); test: In vivo protac activity at CRBN/HDAC8 in human A549 cells xenografted in NOD/SCID mouse assessed as degradation of HDAC8 at 5 mg/kg, ip administered every 5 days measured at day 30 by Western blot analysis; type: functional, organism-based; conditions: time 30.0 day

T1 sequence (Q96SW2 whole entry, looked up): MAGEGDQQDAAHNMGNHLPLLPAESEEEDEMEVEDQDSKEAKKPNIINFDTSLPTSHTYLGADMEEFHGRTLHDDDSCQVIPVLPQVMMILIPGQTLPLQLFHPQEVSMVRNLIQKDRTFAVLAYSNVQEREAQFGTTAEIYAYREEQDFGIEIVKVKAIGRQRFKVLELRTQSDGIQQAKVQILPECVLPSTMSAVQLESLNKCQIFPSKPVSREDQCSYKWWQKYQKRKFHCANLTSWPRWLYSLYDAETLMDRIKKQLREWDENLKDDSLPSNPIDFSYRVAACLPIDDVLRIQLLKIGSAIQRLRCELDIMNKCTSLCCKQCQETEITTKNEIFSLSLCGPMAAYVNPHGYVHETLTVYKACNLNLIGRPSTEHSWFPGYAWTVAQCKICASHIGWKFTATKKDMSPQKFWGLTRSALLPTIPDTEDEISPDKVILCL
T1 sequence (Q9BY41 whole entry, looked up): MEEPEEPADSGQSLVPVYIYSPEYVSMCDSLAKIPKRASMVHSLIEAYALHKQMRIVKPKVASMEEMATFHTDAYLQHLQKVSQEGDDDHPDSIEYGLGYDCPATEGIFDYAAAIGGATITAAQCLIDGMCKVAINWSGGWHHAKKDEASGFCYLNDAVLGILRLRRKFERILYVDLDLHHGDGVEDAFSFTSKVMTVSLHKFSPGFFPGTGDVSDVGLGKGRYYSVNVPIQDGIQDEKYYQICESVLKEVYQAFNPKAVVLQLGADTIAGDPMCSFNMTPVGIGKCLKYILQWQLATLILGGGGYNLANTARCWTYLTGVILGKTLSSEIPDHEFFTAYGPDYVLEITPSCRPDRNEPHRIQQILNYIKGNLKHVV
Protein cereblon/Protein deacetylase HDAC6 (Homo sapiens), sequence (Q96SW2 whole entry, looked up): as the sequence (Q96SW2 whole entry, looked up) above
Protein cereblon/Protein deacetylase HDAC6 (Homo sapiens), sequence (Q9UBN7 whole entry, looked up): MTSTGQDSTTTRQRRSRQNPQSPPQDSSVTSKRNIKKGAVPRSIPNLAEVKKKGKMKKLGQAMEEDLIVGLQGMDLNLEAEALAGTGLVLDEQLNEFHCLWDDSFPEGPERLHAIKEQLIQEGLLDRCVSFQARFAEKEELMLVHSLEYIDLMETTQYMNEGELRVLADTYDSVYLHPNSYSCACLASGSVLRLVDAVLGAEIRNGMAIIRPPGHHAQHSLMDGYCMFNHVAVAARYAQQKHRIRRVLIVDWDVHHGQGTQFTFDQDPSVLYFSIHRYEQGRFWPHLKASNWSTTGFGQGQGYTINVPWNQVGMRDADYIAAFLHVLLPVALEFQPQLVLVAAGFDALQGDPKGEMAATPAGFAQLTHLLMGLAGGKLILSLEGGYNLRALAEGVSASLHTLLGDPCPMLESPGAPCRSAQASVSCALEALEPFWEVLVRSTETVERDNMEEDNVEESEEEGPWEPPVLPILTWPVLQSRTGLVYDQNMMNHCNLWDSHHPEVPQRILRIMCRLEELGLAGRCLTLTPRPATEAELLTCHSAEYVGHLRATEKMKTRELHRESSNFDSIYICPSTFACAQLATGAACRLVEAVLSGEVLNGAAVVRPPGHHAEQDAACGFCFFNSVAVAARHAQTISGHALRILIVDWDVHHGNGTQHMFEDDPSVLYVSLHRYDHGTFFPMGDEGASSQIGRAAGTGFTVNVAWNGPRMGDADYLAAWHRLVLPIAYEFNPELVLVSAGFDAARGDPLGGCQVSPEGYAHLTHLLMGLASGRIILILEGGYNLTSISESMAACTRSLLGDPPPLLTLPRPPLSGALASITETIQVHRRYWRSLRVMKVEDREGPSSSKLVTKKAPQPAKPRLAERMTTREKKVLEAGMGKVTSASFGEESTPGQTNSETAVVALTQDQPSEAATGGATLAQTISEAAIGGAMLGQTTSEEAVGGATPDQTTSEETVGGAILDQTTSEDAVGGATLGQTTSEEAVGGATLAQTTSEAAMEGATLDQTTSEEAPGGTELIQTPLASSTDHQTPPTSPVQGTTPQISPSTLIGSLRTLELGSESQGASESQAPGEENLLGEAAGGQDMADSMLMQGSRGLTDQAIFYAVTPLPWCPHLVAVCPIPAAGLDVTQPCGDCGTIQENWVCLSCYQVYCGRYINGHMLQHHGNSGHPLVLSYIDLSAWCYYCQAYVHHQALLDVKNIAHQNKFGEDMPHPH

## O=C1CCC(N2C(=O)c3cccc(NCc4cn(CCOCCOc5ccc(Cn6ccc7ccc(C(=O)NO)cc76)cc5)nn4)c3C2=O)C(=O)N1 (stereo not given)
A549 [1]
  Activity: Active
A549 [2]
  Activity: 7.4%
[3]
  Activity: 85.4%
A549 [4]
  inhibition: Active
HCT-116 [5]
  inhibition: Active
HCT-116 [6]
  inhibition: Active
A549 [7]
  Activity: Active
A549 [8]
  Activity: Active
A549 [9]
  Activity: Active
A549 [10]
  Activity: Active
A549 [11]
  viability at 2.5 µM: 61.7%
A549 [12]
  Activity: 22.5%
A549 [13]
  Activity: 23.5%
A549 [14]
  Activity: 70.4%
A549 [15]
  Activity: 22.2%
A549 [16]
  Activity: Dose-Dependent Effect
A549 [17]
  Activity: Dose-Dependent Effect
A549 [18]
  viability at 5 µM: 77%
A549 [19]
  Activity: 15.4%
A549 [20]
  viability at 5 µM: 66.3%
A549 [21]
  Activity: 26.7%
A549 [22]
  Activity: 0.3%
A549 [23]
  Activity: 30%
HCT-116 [24]
  Activity: 10%
[25]
  Activity: inactive
A549 [26]
  inhibition: Dose-Dependent Effect
Jurkat
  Activity: Active
[27]
  Activity: inactive
[28]
  Activity: inactive
[29]
  Activity: Active
[30]
  Activity: Active
A549 [31]
  inhibition: Active
A549 [32]
  inhibition: Active
[33]
  Activity: Non-Toxic
[34]
  Activity: Active
